Laboratory results reported in patent publication US20240116985A1, “STAPLED PEPTIDES AND METHODS THEREOF” (priority 2020, published 2024).

Each compound was assayed against T1, full-length beta-Catenin (Uniprot ID P35222) (Homo sapiens, UniProt P35222) (assay: Fluorescence polarization IC50 (beta-catenin / 5FAM-TCF4 10-53 competition)). Details: beta-Catenin FP IC50 (nM), fluorescence polarization.
T1 construct: 10 nM full-length beta-Catenin (Uniprot ID P35222)
T1 sequence (P35222 1-781): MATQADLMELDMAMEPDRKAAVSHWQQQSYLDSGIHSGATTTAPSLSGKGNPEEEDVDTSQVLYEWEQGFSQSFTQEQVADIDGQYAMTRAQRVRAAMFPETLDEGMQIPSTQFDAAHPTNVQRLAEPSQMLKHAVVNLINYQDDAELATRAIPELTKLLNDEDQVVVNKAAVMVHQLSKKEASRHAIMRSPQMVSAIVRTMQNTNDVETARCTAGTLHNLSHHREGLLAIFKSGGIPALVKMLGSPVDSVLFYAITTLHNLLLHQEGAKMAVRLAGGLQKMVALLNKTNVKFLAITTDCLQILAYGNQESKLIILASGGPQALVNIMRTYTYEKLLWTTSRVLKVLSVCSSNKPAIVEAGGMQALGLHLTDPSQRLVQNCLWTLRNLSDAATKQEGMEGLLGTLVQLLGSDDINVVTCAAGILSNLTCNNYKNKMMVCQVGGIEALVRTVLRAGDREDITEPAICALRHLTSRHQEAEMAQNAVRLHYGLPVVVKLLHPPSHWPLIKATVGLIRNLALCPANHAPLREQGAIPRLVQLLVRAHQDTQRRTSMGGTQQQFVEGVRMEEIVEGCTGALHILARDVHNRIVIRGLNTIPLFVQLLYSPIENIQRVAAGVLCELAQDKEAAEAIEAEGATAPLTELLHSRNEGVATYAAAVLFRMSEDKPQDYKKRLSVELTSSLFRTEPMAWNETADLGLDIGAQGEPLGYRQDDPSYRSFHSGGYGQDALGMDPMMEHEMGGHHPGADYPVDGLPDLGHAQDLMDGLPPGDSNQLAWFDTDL
Assay type: binding

Compound	IC50
CC(C)C[C@@H]1NC(=O)[C@H](Cc2ccccc2)NC(=O)[C@H](C)NC(=O)[C@H](C)NC(=O)[C@H](Cc2cccc(C(=O)O)c2)NC(=O)[C@H](CC(=O)O)NC(=O)C2(CCCC=CCCCOC(=O)N3CC[C@@](C(=O)N[C@@H](Cc4ccccc4Cl)C(=O)N[C@@H](Cc4csc5ccccc45)C(=O)N[C@@H](C)C(N)=O)(C3)NC1=O)CCCC=CC[C@]1(CCCN1C(=O)CBr)C(=O)N[C@@H](CC(=O)O)C(=O)N[C@@H](CC(C)(C)C)C(=O)N2 (stereo partly drawn) [I-2286, BrAc-PL3-Asp-Npg-B5-Asp-3COOHF-Ala-Ala-Phe-Leu-PyrS2-2C1F-BztA-Ala-NH2]	88 nM

Same assay, conditions: fluorescence polarization; read-out: beta-Catenin FP IC50

Compound	IC50
CC(=O)N1CCC[C@]12CC=CCCCC1(CCCC=CCCCOC(=O)N3CC[C@@](C(=O)N[C@@H](Cc4ccccc4)C(=O)N[C@@H](Cc4csc5ccccc45)C(=O)N[C@@H](Cc4c[nH]cn4)C(N)=O)(C3)NC(=O)[C@H](CC(C)C)NC(=O)[C@H](Cc3ccccc3)NC(=O)[C@H](C)NC(=O)[C@H](CCCCNC(C)C)NC(=O)[C@H](CCC(N)=O)NC(=O)[C@H](CC(=O)O)NC1=O)NC(=O)[C@H](CC1CCCCC1)NC(=O)[C@H](CC(N)=O)NC2=O (stereo partly drawn) [I-2351, Ac-PL3-Asn-Cha-B5-Asp-Gln-iPrLys-Ala-Phe-Leu-PyrS2-Phe-BztA-His-NH2]	187 nM
CC(=O)N1CCC[C@]12CC=CCCCCC1(CCCCC=CCCCOC(=O)N3CC[C@@](C(=O)N[C@@H](Cc4ccccc4C(F)(F)F)C(=O)N[C@@H](Cc4csc5ccccc45)C(=O)N[C@@H](CCC(N)=O)C(N)=O)(C3)NC(=O)[C@H](CC(C)C)NC(=O)[C@H](Cc3ccccc3)NC(=O)[C@H](C)NC(=O)[C@H](C)NC(=O)[C@H](Cc3cccc(C(=O)O)c3)NC(=O)[C@H](CC(=O)O)NC1=O)NC(=O)[C@H](CC(C)(C)C)NC(=O)[C@H](CC(=O)O)NC2=O (stereo partly drawn) [I-2511, Ac-PL3-Asp-Npg-B6-Asp-3COOHF-Ala-Ala-Phe-Leu-PyrS2-2F3MeF-BztA-Gln-NH2]	566 nM
CC(=O)N1CCC[C@]12CC=CCCCC1(CCCC=CCCCOC(=O)N3CC[C@@](C(=O)N[C@@H](Cc4ccsc4)C(=O)N[C@@H](Cc4csc5ccccc45)C(=O)N[C@@H](CCC(N)=O)C(N)=O)(C3)NC(=O)[C@H](Cn3cc(CN4CCS(=O)(=O)CC4)nn3)NC(=O)[C@H](Cc3ccccc3)NC(=O)[C@H](C)NC(=O)[C@H](C)NC(=O)[C@H](CN(CC(=O)O)CC(F)(F)F)NC(=O)[C@H](CC(=O)O)NC1=O)NC(=O)[C@H](CC(C)(C)C)NC(=O)[C@H](CC(=O)O)NC2=O (stereo partly drawn) [I-1869, Ac-PL3-Asp-Npg-B5-Asp-TfeGA-Ala-Ala-Phe-[SO2MorphCH2]TriAzDap-PyrS2-3Thi-BztA-Gln-NH2]	12 nM
CC(=O)N1CCC[C@]12CC=CCCCC1(CCCC=CCCCOC(=O)N3CC[C@@](C(=O)N[C@@H](Cc4ccccc4Cl)C(=O)N[C@@H](Cc4csc5ccccc45)C(=O)N[C@@H](CCC(N)=O)C(N)=O)(C3)NC(=O)[C@H](CO)NC(=O)[C@H](Cc3ccccc3)NC(=O)[C@H](CC(C)C)NC(=O)[C@H](CC(C)C)NC(=O)[C@H](CC(=O)O)NC(=O)[C@H](CC(=O)O)NC1=O)NC(=O)[C@H](Cc1ccccc1)NC(=O)[C@H](CC(=O)O)NC2=O (stereo partly drawn) [I-1155, Ac-PL3-Asp-Phe-B5-Asp-Asp-Leu-Leu-Phe-Ser-PyrS2-2C1F-BztA-Gln-NH2]	60 nM
CC(=O)N1CCC[C@]12CC=CCCCC1(CCCC=CCCCCOC(=O)N3CC(C(=O)N[C@@H](Cc4ccsc4)C(=O)N[C@@H](Cc4csc5ccccc45)C(=O)N[C@@H](CCC(N)=O)C(N)=O)(C3)NC(=O)[C@H](CC(C)C)NC(=O)[C@H](Cc3ccccc3)NC(=O)[C@H](C)NC(=O)C(C)(C)NC(=O)[C@H](Cc3cccc(C(=O)O)c3)NC(=O)[C@H](CC(=O)O)NC1=O)NC(=O)[C@H](CC(C)(C)C)NC(=O)[C@H](CC(=O)O)NC2=O (stereo partly drawn) [I-2618, Ac-PL3-Asp-Npg-B5-Asp-3COOHF-Aib-Ala-Phe-Leu-Az3-3Thi-BztA-Gln-NH2]	77 nM

The remaining lines, values ahead:

IC50	Compound
1890 nM	CC(=O)N1CCC[C@]12CCCCCCC1(CCCCCCCCOC(=O)N3CC[C@](C(=O)N[C@@H](Cc4ccsc4)C(=O)N[C@@H](Cc4csc5ccccc45)C(=O)N[C@@H](CCC(N)=O)C(N)=O)(C3)NC(=O)[C@H](CC(C)C)NC(=O)[C@H](Cc3ccccc3)NC(=O)[C@H](C)NC(=O)[C@H](C)NC(=O)[C@H](CC(=O)O)NC(=O)[C@H](CC(=O)O)NC1=O)NC(=O)[C@H](CC(C)(C)C)NC(=O)[C@H](CC(=O)O)NC2=O (stereo partly drawn) [I-2022, Ac-PL3-Asp-Npg-B5-Asp-Asp-Ala-Ala-Phe-Leu-PyrR2-3Thi-BztA-Gln-NH2]
1680 nM	CC(=O)N1CCC[C@]12CC=CCCCC1(CCCC=CCCCOC(=O)N3CC[C@](C(=O)N[C@@H](Cc4ccsc4)C(=O)N[C@@H](Cc4csc5ccccc45)C(=O)N[C@@H](CCC(N)=O)C(N)=O)(C3)NC(=O)[C@H](CC(N)=O)NC(=O)[C@H](Cc3ccccc3)NC(=O)[C@H](C)NC(=O)[C@H](C)NC(=O)[C@H](CC(=O)O)NC(=O)[C@H](CC(=O)O)NC1=O)NC(=O)[C@H](CC(C)(C)C)NC(=O)[C@H](CC(=O)O)NC2=O (stereo partly drawn) [I-2018, Ac-PL3-Asp-Npg-B5-Asp-Asp-Ala-Ala-Phe-Asn-PyrR2-3Thi-BztA-Gln-NH2]
363 nM	CC(=O)N1CCC[C@]12CC=CCCCC1(CCCC=CCCCOC(=O)N3CC[C@@](C(=O)N[C@@H](Cc4ccsc4)C(=O)N[C@@H](Cc4csc5ccccc45)C(=O)N[C@@H](Cc4ccccc4)C(N)=O)(C3)NC(=O)[C@H](CC(N)=O)NC(=O)[C@H](Cc3ccccc3)NC(=O)[C@H](C)NC(=O)[C@H](C)NC(=O)[C@H]([C@@H](C)O)NC(=O)[C@H](CC(N)=O)NC1=O)NC(=O)[C@H](CC(C)(C)C)NC(=O)[C@H](CC(=O)O)NC2=O (stereo partly drawn) [I-1744, Ac-PL3-Asp-Npg-B5-Asn-Thr-Ala-Ala-Phe-Asn-PyrS2-3Thi-BztA-Phe-NH2]
179 nM	CC(=O)N1CCC[C@]12CC=CCCCC1(CCCC=CCCCOC(=O)N3CC[C@@](C(=O)N[C@@H](Cc4ccccc4)C(=O)N[C@@H](Cc4csc5ccccc45)C(=O)N[C@@H](CCC(N)=O)C(N)=O)(C3)NC(=O)[C@H](CC(C)C)NC(=O)[C@H](Cc3ccccc3)NC(=O)[C@H](C)NC(=O)[C@H](CCCCNC(C)C)NC(=O)[C@H](Cc3c[nH]cn3)NC(=O)[C@H](CC(=O)O)NC1=O)NC(=O)[C@H](CC1CCCCC1)NC(=O)[C@H](CC(N)=O)NC2=O (stereo partly drawn) [I-2348, Ac-PL3-Asn-Cha-B5-Asp-His-iPrLys-Ala-Phe-Leu-PyrS2-Phe-BztA-Gln-NH2]
121 nM	CC(=O)N1CCC[C@]12CC=CCCCC1(CCCC=CCCCOC(=O)N3CC[C@@](C(=O)N[C@@H](Cc4ccsc4)C(=O)N[C@@H](Cc4c[nH]c5cc(Cl)ccc45)C(=O)N[C@@H](CO)C(N)=O)(C3)NC(=O)[C@H](CC(C)C)NC(=O)[C@H](Cc3ccccc3)NC(=O)[C@H](C)NC(=O)[C@H](C)NC(=O)[C@H](CC(=O)O)NC(=O)[C@H](CC(=O)O)NC1=O)NC(=O)[C@H](CC(C)(C)C)NC(=O)[C@H](CC(=O)O)NC2=O (stereo partly drawn) [I-1436, Ac-PL3-Asp-Npg-B5-Asp-Asp-Ala-Ala-Phe-Leu-PyrS2-3Thi-6C1W-Ser-NH2]
89 nM	CC(=O)N1CCC[C@]12CC=CCCCC1(CCCC=CCCCOC(=O)N3CC[C@@](C(=O)N[C@@H](Cc4ccsc4)C(=O)N[C@@H](Cc4csc5ccccc45)C(=O)N[C@@H](CCC(N)=O)C(N)=O)(C3)NC(=O)[C@H](CC(C)C)NC(=O)[C@H](Cc3ccccc3)NC(=O)[C@H](CCN3CCN(C)CC3)NC(=O)[C@H](C)NC(=O)[C@H](CC(=O)O)NC(=O)[C@H](CC(=O)O)NC1=O)NC(=O)[C@H](CC(C)(C)C)NC(=O)[C@H](CC(=O)O)NC2=O (stereo partly drawn) [I-1506, Ac-PL3-Asp-Npg-B5-Asp-Asp-Ala-MePpzAbu-Phe-Leu-PyrS2-3Thi-BztA-Gln-NH2]
36 nM	CC(=O)N1CCC[C@]12CC=CCCCC1(CCCC=CCCCCOC(=O)N3CC(C(=O)N[C@@H](Cc4ccsc4)C(=O)N[C@@H](Cc4csc5ccccc45)C(=O)N[C@@H](CCC(N)=O)C(N)=O)(C3)NC(=O)[C@H](CC(C)C)NC(=O)[C@H](Cc3ccccc3)NC(=O)[C@H](C)NC(=O)C(C)(C)NC(=O)[C@H](Cc3cccc(C(=O)O)c3)NC(=O)[C@H](CC(=O)O)NC1=O)NC(=O)[C@H](CC(C)(C)C)NC(=O)[C@H](CC(=O)O)NC2=O (stereo partly drawn) [I-2619, Ac-PL3-Asp-Npg-B5-Asp-3COOHF-Aib-Ala-Phe-Leu-Az3-3Thi-BztA-Gln-NH2]
19 nM	CC(=O)N1CCC[C@]12CC=CCCCC1(CCCC=CCCCOC(=O)N3CC[C@@](C(=O)N[C@@H](Cc4ccsc4)C(=O)N[C@@H](Cc4c[nH]c5ccccc45)C(=O)N[C@@H](CCC(N)=O)C(N)=O)(C3)NC(=O)[C@H](CC(N)=O)NC(=O)[C@H](Cc3ccccc3)NC(=O)[C@H](C)NC(=O)[C@H](C)NC(=O)[C@H](CC(=O)O)NC(=O)[C@H](CC(=O)O)NC1=O)NC(=O)[C@H](CC(C)(C)C)NC(=O)[C@H](CC(=O)O)NC2=O (stereo partly drawn) [I-2175, Ac-PL3-Asp-Npg-B5-Asp-Asp-Ala-Ala-Phe-Asn-PyrS2-3Thi-Trp-Gln-NH2]
